Results published in US5795885A, “Method of inhibiting profileration of cells by administering an aminosterol compound” (priority 1995, dated 1998).
Converted amounts (≈) assume the structure as drawn. Like-named read-outs stand apart in the source and are kept apart here.

Columns and labels:
[1] = system: chick embryo vitelline capillaries; assay: chick embryo vitelline capillary regression assay; type: in vivo; set-up: key to vitelline capillary regression: +: Vascular reactivity; 0: No vascular reactivity; +/-: Equivocal reactivity; details: for vitelline capillary regression: 60 minutes
Experimental: Using the chick embryo vitelline capillaries assay, compounds were tested for their ability to induce capillary regression. Each compound was applied in 0.1 ml of 15% Ficol 400 and PBS onto the embryo, and vascular regression was assessed after 60 minutes.
The 3-day chick embryo consists of an embryonic disc from which numerous vessels emerge and return, forming a "figure 8"-shaped structure--the embryo in the center with vascular loops extending outward over both poles. […] Following a lag period of around 15 minutes, the constriction of continuity between capillary and secondary vessels, generally on the "venous" side, was observed. Continued pulsatile blood flow progressed, resulting in a "swelling" of the blind tube, followed by a pinching off of the remaining connection and formation of an enclosed vascular sac resembling a "blood island." This process progressed until only the largest vessels remained intact.

[2] = system: PHA-stimulated human lymphocytes; assay: inhibition of mitogen (PHA)-stimulated growth of human T-cells; type: cell-based; details: Homo sapiens, Lymphocyte, read-out: inhibition of PHA-stimulated human lymphocytes (% control); for inhibition at 1 µg/mL: 1 μg/ml; for inhibition at 5 µg/mL: 5 μg/ml; for inhibition at 10 µg/mL: 10 μg/ml
Excerpt: Results are tabulated below.

[3] = type: physicochemical
Excerpt: Compound 1361 was isolated from shark liver preparations in two different ways: first, as a degradation product of compound 1360; and, subsequently,as a minor aminosterol component fractionating with slightly faster retention time than squalamine during preparative C18 RP-HPLC (component of Fraction VI). In early attempts to purify each aminosterol to homogeneity, pooled fractions from C18 RP-HPLC were subjected to silica gel flash chromatography with CH2 Cl2 :CH30 H:NH4 OH 6:3:1, and the aminosterols were assayed on TLC plates. The pools of free base steroids were then re-subjected to C18 RP-HPLC, using an analytical column.

[4] = system: stage 59-60 Xenopus tadpoles; details: for pharmacological response in tadpole: 10 μg/ml in water
B16 melanoma = B16 melanoma growth in C57B mice; type: in vivo, mouse
Experimental: The growth of B16 melanoma in C57B mice is dependent upon neovascularization.
Using the growth of B16 melanoma cells in C57B mice, a recognized model for the evaluation of inhibitors of angiogenesis on the growth of cancers, the effects of subcutaneous, intraperitoneal and oral administration of squalamine were evaluated.
Based on the idea that tumor growth involves both the clonal expansion of a malignant cell along with the development of a supporting vascular supply, a combination of compound 1436 with squalamine was tested to determine whether it would achieve a synergistic effect on solid tumor growth. This concept was evaluated in the B16 melanoma model.
Animals were implanted with B16 melanoma followed by treatment with compound 1436 or 1256 administered in a combined schedule or separately. […] Thus, a combination of these two compounds achieves a therapeutic benefit in tumors dependent on neovascularization that may prevent metastatic spread.

arterial pressure = arterial pressure in the rat after i.v. administration; type: in vivo
Experimental: A 200-g rat was catheterized in the right carotid artery, and the compound was introduced over a ten-second period to a total dosage of 5 mg/kg. Within 30 seconds, the mean arterial pressure had fallen from about 100 mm Hg to about 70 mm Hg, with a marked reduction in pulse pressure from about 40 mm to about 10 mm. […] If cardiac output was basically unaffected, reduction in blood pressure would have resulted principally from a reduction in system resistance.
At that time, 40 μg of noradrenaline was introduced.

[5] = system: human coronary artery smooth muscle; assay: proliferation of human coronary artery smooth muscle in vitro; type: cell-based
Excerpt: Aminosterols of the invention may also have utility in inhibiting the growth factor mediated proliferation of smooth muscle within the artery. Following coronary angioplasty, reocclusion commonly occurs, secondary to reparative proliferation of the vascular smooth muscle within the wall of the surgically manipulated blood vessel. This process generally takes place over the course of 7-10 days. To evaluate whether an agent could prevent the growth factor mediated proliferation of smooth muscle within the artery, compound 1436 was evaluated in vitro for its effect on the proliferation of human coronary artery smooth muscle. Results for compound 1436 are shown in FIG. 13, and those for squalamine are shown in FIG. 14, with FIG. 15 being a composite logarithmic plot.

[6] = system: heart of a juvenile Xenopus laevis frog; assay: ex vivo beating of isolated frog heart; details: 10 μg/ml; Krebs-Ringer with adrenaline 50 μg/ml; about one hour without compound
Experimental: To determine if compound 1436 has such utility, the following experiment was performed. The heart of a juvenile Xenopus laevis frog was dissected from the living animal. The heart was placed into a Petri dish containing Krebs-Ringer buffer with adrenaline 50 μg/ml, and examined with the naked eye. At room temperature, the heart continued beating in a coordinated fashion (atrial beat followed by ventricular beat) for about one hour. In the presence of 10 μg/ml of compound 1436, spontaneous beating persisted up to 24 hours.

rabbit NHE3 = rabbit NHE3 (Oryctolagus cuniculus, UniProt P26432); details: 10 μg/ml; acid preloaded by 40 mM NH4Cl
Experimental: Internal pH was measured either following acid loading or in the absence of an acid-loading challenge, with the results shown in FIGS. 1A and 1B.
Specifically, PS120 fibroblasts transfected with rabbit NHE3 were grown in supplemented Dulbecco's-modified Eagle's medium as described by Levine et al., J. Biol. Chem. 268, 1993, 25527-25535. […] For cells not acid-preloaded, the actual internal pH value was monitored as a function of time following addition of squalamine, with the results depicted in FIG. 1B.
PS120 fibroblasts transfected with rabbit NHE3 were grown and acid preloaded by exposure to 40 mM NH4 Cl as described above in conjunction with FIGS. 1A and 1B. Internal cellular pH changes expressed as the rate of pH recovery as a function of restored extracellular sodium ion concentration following exposure to 10 μg/ml of the compound were assayed with the fluorescent dye BCECF-AM as described above.

[7] = growth and weight gain in growing mice; type: in vivo, C57B mice
Experimental: Animals were dosed QTD (i.p.) starting on Day 1. […] Animals receiving 5 mg/kg QTD experienced about a 50% reduction in growth, compared to untreated controls, while animals receiving 1 mg/kg QTD were affected by about 10%. […] They appeared very much like hypophysectamized animals might appear.

[8] = system: L1210 lymphoblastic leukemia; assay: mouse model of L1210 leukemia; type: in vivo, C57B mice
[9] = system: Human ovarian carcinoma SKOV3; assay: growth inhibition in vitro (Baker et al.); type: cell-based; details: 10 μg/ml
Experimental: (§1) As set forth in Table 7 below, all malignant tumors evaluated in tissue culture, endothelial cells and vascular smooth muscle cells were sensitive to inhibition. Thus, compound 1436 has application in the control of growth factor dependent proliferation of many types of tissue.
Using the assay described above, the anticancer effects of compound 1437 against several cancer lines was assessed.

fasting blood glucose = fasting blood glucose in mice; type: in vivo, Male CD-1 mice; details: intravenous
Experimental: To study the effect of steroid administrator or the NHE responsible for secretion of insulin, several of the aminosterols from shark liver were administered to fasting mice. Male CD-1 mice were assigned to one of four treatment groups. Whole blood glucose was tested using glucometer (Lifescan Glucometer II and One Touch test strips). Statistical analysis was via one-way analysis of variance (ANOVA) followed by subsequent Bonferonni's t-test.

[10] = system: Human colon carcinoma SW948; assay: growth inhibition in vitro (Baker et al.); type: cell-based; details: 10 μg/ml
Excerpt: as §1

Murine L1210 leukemia = assay: growth inhibition in vitro (Baker et al.); type: cell-based; details: 10 μg/ml
Excerpt: as §1

Human melanoma WM 1617 = assay: growth inhibition in vitro (Baker et al.); type: cell-based; details: 10 μg/ml
Excerpt: as §1

[11] = system: Human coronary artery smooth muscle cells; assay: growth inhibition in vitro (Baker et al.); type: cell-based; details: 10 μg/ml
Excerpt: as §1

[12] = system: Human microvascular endothelial cells; assay: growth inhibition in vitro (Baker et al.); type: cell-based; details: 10 μg/ml
Excerpt: as §1

[13] = system: bovine pulmonary endothelial cells; assay: growth inhibition in vitro (Baker et al.); type: cell-based; details: 10 μg/ml
Excerpt: as §1

[14] = system: human umbilical venous endothelial cells; assay: growth inhibition in vitro (Baker et al.); type: cell-based; details: 10 μg/ml
Excerpt: as §1

[15] = system: Human colon carcinoma HT29; assay: growth inhibition in vitro (Baker et al.); type: cell-based; details: 10 μg/ml
Excerpt: as §1

Lewis lung carcinoma = assay: growth inhibition / cytotoxicity in vitro; type: cell-based; details: 10 μg/ml
Excerpt: as §1

Murine B16 melanoma = assay: growth inhibition in vitro; type: cell-based; details: 10 μg/ml
Excerpt: as §1

S. aureus = assay: antibiotic activity (MIC); type: cell-based; details: Staphylococcus aureus
HM = HM MTT assay; type: cell-based; details: Table II; read-out: Minimum Effective Concentration, HM MTT assay
E. Coli = assay: antibiotic activity (MIC); type: cell-based; details: Escherichia coli, read-out: MIC, E. Coli
P. aerug = assay: antibiotic activity (MIC); type: cell-based

Sequence of rabbit NHE3 (P26432 30-832): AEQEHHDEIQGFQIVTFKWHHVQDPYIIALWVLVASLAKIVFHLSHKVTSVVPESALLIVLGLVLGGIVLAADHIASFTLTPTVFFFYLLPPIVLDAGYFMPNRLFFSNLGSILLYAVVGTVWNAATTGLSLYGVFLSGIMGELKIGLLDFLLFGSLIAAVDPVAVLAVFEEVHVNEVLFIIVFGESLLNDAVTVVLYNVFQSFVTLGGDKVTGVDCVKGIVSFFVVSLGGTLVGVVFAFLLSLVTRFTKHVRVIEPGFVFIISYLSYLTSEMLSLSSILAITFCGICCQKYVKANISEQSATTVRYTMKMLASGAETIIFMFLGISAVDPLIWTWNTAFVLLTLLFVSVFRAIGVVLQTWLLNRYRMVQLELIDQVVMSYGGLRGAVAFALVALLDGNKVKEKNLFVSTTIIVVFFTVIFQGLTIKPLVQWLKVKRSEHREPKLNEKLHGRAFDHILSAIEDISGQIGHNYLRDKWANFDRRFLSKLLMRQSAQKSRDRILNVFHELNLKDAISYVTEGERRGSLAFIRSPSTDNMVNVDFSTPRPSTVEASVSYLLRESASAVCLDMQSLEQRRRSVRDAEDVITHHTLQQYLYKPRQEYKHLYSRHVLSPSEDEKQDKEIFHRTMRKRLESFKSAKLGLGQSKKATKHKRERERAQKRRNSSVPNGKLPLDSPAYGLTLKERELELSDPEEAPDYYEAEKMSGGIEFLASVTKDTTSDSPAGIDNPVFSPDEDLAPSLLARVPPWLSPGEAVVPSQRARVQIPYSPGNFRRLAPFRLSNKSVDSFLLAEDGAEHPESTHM

CC(COS(=O)(=O)O)C(=O)CC[C@@H](C)[C@H]1CC[C@H]2[C@@H]3[C@H](O)C[C@H]4C[C@@H](NCCCNCCCCN)CC[C@]4(C)[C@H]3CC[C@]12C (single isomer, unassigned) [Compound 1360]
vitelline capillary regression ([1]; 1 μg applied): 0
effect on blood color in chick embryo ([1]; within 20 minutes): the blood circulating through the embryonic vessels exhibited a brighter red color
inhibition at 1 µg/mL [2]: 5%
inhibition at 5 µg/mL [2]: 5%
inhibition at 10 µg/mL [2]: 5%
chemical stability [3]: undergoes a dehydration of the 27 hydroxyl, loss of sulfate, and generation of the corresponding 27-ene
pharmacological response in tadpole [4]: Swelling and lysis of certain erythrocytes occurred, resulting in accumulation of nuclei within certain small vessels of the tail. Subsequent tissue breakdown occurred in areas of tail surrounding these nuclear plugs.
pharmacological response in tadpole ([4]; listed as compound 1360): extensive vasocclusion occurred within 60 minutes throughout the tail

CC(C)[C@@H](CC[C@@H](C)[C@H]1CC[C@H]2[C@@H]3[C@H](O)C[C@H]4C[C@@H](NCCCNCCCCNCCCN)CC[C@]4(C)[C@H]3CC[C@]12C)OS(=O)(=O)O [Compound 1436]
impact on tumor volume (B16 melanoma; compound 1436 alone 10 mg/kg/every 3 days): no significant impact on tumor volume
tumor growth, single agent (B16 melanoma; squalamine 15 mg/kg/day, compound 1436 alone in a tolerable schedule): Neither administration of squalamine at 15 mg/kg/day nor compound 1436 alone in a tolerable schedule could achieve this effect
reversibility of effect (arterial pressure; 40 μg noradrenaline at 30 minutes): readily reversible
duration of effect on arterial pressure (arterial pressure; 5 mg/kg i.v.): followed for 30 minutes, without significant change
heart rate (arterial pressure; 5 mg/kg i.v.): no significant increase in heart rate was observed
time to fall in arterial pressure (arterial pressure; 5 mg/kg i.v.): ≤ 30 s
pulse pressure after dosing (arterial pressure; 5 mg/kg i.v., from about 40 mm): about 10 mm
mean arterial pressure after dosing (arterial pressure; 5 mg/kg i.v., from about 100 mm Hg): about 70 mm Hg
suppression of growth (in words) ([5]; FIG. 15): suppress in vitro the growth of human coronary artery smooth muscle
viability ([5]; about 11 μg/ml): without loss of viability
persistence of spontaneous beating of isolated heart [6]: up to 24 hours
inhibition of rabbit NHE3 (rabbit NHE3): found to inhibit rabbit NHE3
reduction in growth of mice ([7]; 1 mg/kg QTD i.p.): about 10%
suppression of growth of mice ([7]; 10 mg/kg QTD i.p., about 1 month): growth was almost completely inhibited
health of treated animals ([7]; mouse, in vivo): all were active, normally proportioned, not-cachectic, and in excellent apparent clinical health
survival ([8]; highest dose (10 mg/kg every 3 days i.p.)): significant prolongation of life
granulocyte count ([8]; mouse, in vivo): robust granulocyte count
hematocrit ([8]; mouse, in vivo): near normal hematocrit
cancer cells inhibited in vitro [9]: INHIBITED
hyperglycemia (fasting blood glucose): caused hyperglycemia in mice
vitelline capillary regression ([1]; 0.001 μg applied): +/-
vitelline capillary regression ([1]; 0.01 μg applied): +
vitelline capillary regression ([1]; 0.1 μg applied): +
vitelline capillary regression ([1]; 1 μg applied): +
vitelline capillary regression ([1]; 10 μg applied): +
effect on chick embryo vitelline capillaries (in words) ([1]; in vivo): causes vitelline capillary regression with about the same potency as squalamine
cancer cells inhibited in vitro [10]: INHIBITED
cancer cells inhibited in vitro (Murine L1210 leukemia): INHIBITED
cancer cells inhibited in vitro (Human melanoma WM 1617): INHIBITED
non-transformed cells inhibited in vitro [11]: INHIBITED
non-transformed cells inhibited in vitro [12]: INHIBITED
non-transformed cells inhibited in vitro [13]: INHIBITED
non-transformed cells inhibited in vitro [14]: INHIBITED
cancer cells inhibited in vitro [15]: INHIBITED
cancer cells inhibited in vitro (Lewis lung carcinoma): INHIBITED
cancer cells inhibited in vitro (Murine B16 melanoma): INHIBITED
inhibition at 1 µg/mL [2]: 20%
inhibition at 5 µg/mL [2]: 50%
inhibition at 10 µg/mL [2]: 80%
time to death of tadpole ([4]; in vivo): about 2 hours
tadpole tail capillary occlusion ([4]; squalamine at 10 μg/ml): common vascular occlusive effect

CC(C)CCC[C@@H](C)[C@H]1CC[C@H]2[C@@H]3CC[C@H]4C[C@H](NCCCN5CCCCN=C5N)CC[C@]4(C)[C@H]3CC[C@]12C
MIC (S. aureus): 2 µg/mL (≈ 3.7 µM)

COC(=O)CCC(C)[C@H]1CCC2C3CC[C@H]4C[C@H](NCCCNCCCCNCCCN)CC[C@]4(C)C3CC[C@@]21C (some centres unmarked) [drawing 108]
minimal effective concentration (HM): 6.8 µg/mL

COC(=O)CCC(C)[C@H]1CCC2C3C[C@@H](O)[C@H]4C[C@H](NCCN)CC[C@]4(C)C3CC[C@@]21C (some centres unmarked)
MIC (E. Coli): 32 to 44 µg/mL (≈ 71.3 to 98.1 µM)
MIC (P. aerug): 128 µg/mL (≈ 285 µM)
